This is an account of results in PMC9677951 (Journal of medicinal chemistry, 2020).

Series [1] deals with WT virus and NNRTI-resistant HIV-1 strains. Nature of the series: Broad-spectrum anti-HIV-1 activity against WT and NNRTI-resistant strains. It is filed as cell-based. Conditions: Human immunodeficiency virus 1, read-out: EC50 range, broad-spectrum activity.
A further series relates to Kunming mice. Briefly: Acute toxicity study in Kunming mice. It is filed as in vivo. Particulars: single oral dose 2000 mg/kg.
The subject of series [2] is HIV-1 F227L+V106A. Conditions: read-out: EC50 F227L+V106A; previously reported; ref [9]-[13]; cited from earlier work.
A further series relates to HIV-1 K103N. Particulars: read-out: EC50 K103N; previously reported; ref [9]-[13]; cited from earlier work.
Series [3] concerns HIV-1 strain RES056 (K103N+Y181C). Conditions: read-out: EC50 RES056, previously reported, ref [9]-[13], cited from earlier work.
The subject of series [4] is WT HIV-1 (IIIB). Particulars: read-out: EC50 WT; previously reported; ref [9]-[13]; cited from earlier work.
In series [5] the test system is HIV-1 E138K. Particulars: read-out: EC50 E138K; previously reported; ref [9]-[13]; cited from earlier work.
The test system of series [6] is HIV-1 strain RES056 (K103N+Y181C). Particulars: read-out: EC50 RES056, MT-4 cells, MTT method. A general note: Tetrazolium assays rely on reduction of a dye to a coloured formazan, in cell work by metabolically active cells.
Series [7] deals with WT HIV-1 (IIIB). Conditions: read-out: EC50 IIIB, MT-4 cells, MTT method.
For another series, the system named is HIV-1 Y188L. Briefly: Anti-HIV-1 activity against Y188L mutant in MT-4 cells, MTT method. Particulars: Human immunodeficiency virus 1, MT4, read-out: EC50 Y188L. It is filed as cell-based.
A further series has as its system HIV-1 Y181C. Briefly: Anti-HIV-1 activity against Y181C mutant in MT-4 cells, MTT method. The format is cell-based. Particulars: Human immunodeficiency virus 1, MT4, read-out: EC50 Y181C.
Series [8] relates to HIV-1 E138K. Nature of the series: Anti-HIV-1 activity against E138K mutant in MT-4 cells, MTT method. It is filed as cell-based. Particulars: Human immunodeficiency virus 1, MT4, read-out: EC50 E138K.
Series [9] deals with WT HIV-1 (IIIB). Nature of the series: microbe, parasite or virus in culture. Conditions: Human immunodeficiency virus 1, IIIB, MT4, read-out: EC50 IIIB.
Series [10] deals with HIV-1 F227L+V106A. Nature of the series: Anti-HIV-1 activity against F227L+V106A mutant in MT-4 cells, MTT method. It is filed as cell-based. Conditions: Human immunodeficiency virus 1, MT4, read-out: EC50 F227L+V106A.

“And” between values parts separate entries of the source, which are not always exact repeats. Equal values may be shown once. “Also recorded” adds a separate entry of the source. Read-outs that look alike come from different tables or passages of the source.

As usually defined, the EC50 is the concentration that produces a half-maximal response. `Cc1cc(/C=C/C#N)cc(C)c1Oc1nc(Nc2ccc(C#N)c(F)c2)nc2ccsc12` [Compound 24b, (E)-4-((4-(4-(2-cyanovinyl)-2,6-dimethylphenoxy)thieno[3,2-d]pyrimidin-2-yl)amino)-2-fluorobenzonitrile]: the EC50 in series [1] is 0.0036 to 0.0215 µM. For the same compound, in the series with Kunming mice, the “Acute toxicity: behaviors and body weight vs control group” value is reported as “no abnormal behaviors or significant changes of body weight”. The “Acute toxicity: mortality or poisoning symptoms” value with Kunming mice (following 7 days, 2000 mg/kg) is “no mortality or poisoning symptoms; also recorded: no acute toxicity”.
On to `Cc1cc(C#N)cc(C)c1Oc1nc(NC2CCN(Cc3ccc(S(N)(=O)=O)cc3)CC2)nc2ccsc12` [Compound K-5a2], for which the EC50 with HIV-1 F227L+V106A [2] is 0.0042 ± 0.0012 µM; in the series with HIV-1 K103N, 0.0029 µM; in [3] (listed as 3), 0.0306 µM and 0.031 µM; with WT HIV-1 (IIIB) [4], 0.0014 ± 0.0004 µM; in the series on HIV-1 E138K [5], 0.0029 µM.
For the compound `O=C1Nc2ccc(Cl)cc2[C@@](C#CC2CC2)(C(F)(F)F)O1` [EFV, efavirenz], the EC50 stood at 0.26 ± 0.0476 µM in series [6] and 0.00249 ± 0.000547 µM with WT HIV-1 (IIIB) [7].
Regarding `Cc1cc(C#N)cc(C)c1Oc1nc(Nc2ccc(C#N)cc2)nc(N)c1Br` [ETR, Etravirine], the EC50 with HIV-1 Y188L is 0.0204 ± 0.00864 µM; with HIV-1 F227L+V106A [2], 0.029 ± 0.0077 µM; in the series on HIV-1 Y181C, 0.0145 ± 0.00822 µM; with HIV-1 E138K [8], 0.00976 ± 0.0069 µM; with HIV-1 K103N it was 0.0024 ± 0.0006 µM; in [3], 0.017 ± 0.0018 µM. The EC50 with WT HIV-1 (IIIB) [9] is 0.00255 ± 0.00037 µM; in the series with WT HIV-1 (IIIB) [4], 0.0041 ± 0.0001 µM; in the series with HIV-1 E138K [5], 0.014 ± 0.0022 µM; in series [6], 0.0322 ± 0.0122 µM; with HIV-1 F227L+V106A [10], 0.0197 ± 0.0073 µM.
As to `Cc1cc(/C=C/C#N)cc(C)c1Nc1ccnc(Nc2ccc(C#N)cc2)n1` [RPV, rilpivirine], the EC50 in series [3] was 0.011 ± 0.0019 µM; in the series on WT HIV-1 (IIIB) [4], 0.001 ± 0.0003 µM.
